Results as given in patent US20180087027A1, “METHOD FOR […] OF HUMAN MESENCHYMAL STEM CELLS” (SEOUL NATIONAL UNIVERSITY HOSPITAL, priority 2015, published 2018).

Key:
Type in all cases: cell-based
human MSCs [1] = experiment: Real time gDNA PCR comparing length of telomeres in human MSCs treated with ET-1; conditions: 0.025 μg/mL ET-1, medium replaced after 24 hours, gDNA collected after 3 days; FIG. 3
Procedure: To check a change in a length of telomeres in human MSCs when the human MSCs were treated or were not treated with ET-1, the human MSCs were prepared so that the cells reached a confluency of 60% on a 60 mm plate. Before the human MSCs were treated with ET-1, a culture broth was replaced with a fresh culture broth. Thereafter, the human MSCs were treated with 0.025 μg/mL of ET-1, and the medium was replaced with a fresh culture broth after 24 hours. After 3 days, gDNA samples were collected. Then, real time gDNA PCR was performed using the samples to compare the lengths of the telomeres by means of ET-1 treatment.

human MSCs [2] = experiment: G-banding karyotype analysis of chromosomal stability in human MSCs treated with ET-1; conditions: human MSCs treated with ET-1 as in Example 2, FIG. 4
Procedure: For this purpose, the G-banding karyotype analysis method known as a basic test method for evaluating genomic stability was performed. The G-banding karyotype analysis method is a method of pre-treating stem cells with trypsin, which is a proteolytic enzyme, and staining chromosomes with a Giemsa stain. In this case, euchromatin is stained with a light color, and heterochromatin is stained with a dark color. The G-banding karyotype analysis method is the test method most often used for chromosomal analysis because many staining bands are generated.

Oct4 mRNA in human MSCs = experiment: Real time PCR of Oct4 mRNA expression in human MSCs treated with ET-1; conditions: RNA extracted 24 hours after ET-1 treatment, FIG. 2
Procedure: To compare levels of mRNA expression of Oct4 in human MSCs treated with ET-1, the human MSCs were treated with ET-1, and RNA was extracted therefrom after 24 hours to synthesize complementary cDNA. Thereafter, real time PCR was performed using the complementary cDNA as a template and Oct4 amplification primers set forth in the following SEQ ID NOs: 1 and 2.
SEQ ID NO: 1: 5′-gaggcaacct ggagaatttg-3′ (Oct4 forward primer)
SEQ ID NO: 2: 5′-tagcctgggg taccaaaatg-3′ (Oct4 reverse primer)

[3] = tested on: Oct4 protein in human MSCs; experiment: Western blotting of Oct4 protein expression in human MSCs treated with ET-1
Procedure: To determine a level of expression of an Oct4 protein in human MSCs when the human MSCs were treated with ET-1, human MSCs purchased from Lonza were treated with an increasing concentration (0, 0.0125, 0.025, 0.125, and 0.25 μg/mL) of ET-1, and a level of protein expression was determined through western blotting.

endothelin-1 [ET-1]
lengths of the telomeres versus MSCs not treated with ET-1 (human MSCs [1]): extended approximately three-fold or more
chromosomal stability (chromosomal dysfunction) (human MSCs [2]): chromosomal dysfunction was not induced
mRNA expression of Oct4 (Oct4 mRNA in human MSCs): increased
level of protein expression of Oct4 across the tested ET-1 concentrations ([3]; ET-1 at a concentration of 0.025 μg/mL, FIG. 1): highest level of protein expression
level of protein expression of the stemness marker Oct4 ([3]; human MSCs (Lonza) treated with 0, 0.0125, 0.025, 0.125 and 0.25 μg/mL ET-1, FIG. 1): significantly increased
